Values joined by “and” are separate entries in the source; they are usually repeats but may differ in a detail not shown here. Equal entries are not always repeated.
Tests used:
[1] = Average particle size (ζ-Average) and PDI by dynamic light scattering (Zetasizer Nano ZSP); type: physicochemical
Summary of the method: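 Lipid nanoparticles dispersed in PBS(−) were sized by dynamic light scattering, giving the ζ-Average diameter and polydispersity index (PDI).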

[2] = siRNA/mRNA encapsulation rate by Ribogreen reagent (section IV); type: physicochemical; details: for % siRNA encapsulation: F7siRNA-loaded LNP, 50:10:38.5:1.5, N/P ratio 6; for % mRNA encapsulation: FlucmRNA-loaded LNP, 50:10:38.5:1.5
Summary of the method: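 LNPs diluted in TE buffer to 8 μg/mL nucleic acid for surface RNA, or to 1.2 μg/mL with 1% Triton X-100 for total RNA. RiboGreen fluorescence (ex 485/em 528 nm) quantified against a Triton-containing standard curve (0-2.5 μg/mL). Encapsulation % = (total − surface)/total × 100.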

[3] = test system: liver; test: In vivo Fluc activity of FlucmRNA-loaded LNP by in vivo imaging, liver; details: Balb/c mice, FlucmRNA-loaded LNP i.v. 0.1 mg mRNA/kg, 6 hours
Summary of the method: (§1)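 Female Balb/c mice, 7 weeks old, received LNP i.v. at 0.1 mg mRNA/kg. At 6 h, luciferin was given via tail vein at 1.5 mg per mouse, and liver and spleen luminescence was imaged as Avg Radiance [p/s/cm2/sr] near 560 nm.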

[4] = test system: spleen; test: In vivo Fluc activity of FlucmRNA-loaded LNP by in vivo imaging, spleen; details: Balb/c mice, 6 hours; for Fluc activity in the spleen, compared with CL4F6 / Fluc activity in the spleen, compared with CL15F6: 0.1 mg mRNA/kg; for Fluc activity in the spleen, compared with CL4F6: versus LNP comprising CL4F6 (Tables 5 and 6); for Fluc Activity in spleen: FlucmRNA-loaded LNP i.v. 0.1 mg mRNA/kg; for Fluc activity in the spleen, compared with CL15F6: versus LNP comprising CL15F6 (Table 7)
Summary of the method: as §1

[5] = test system: F7; test: In vivo F7 knockdown, plasma F7 enzyme activity (BIOPHEN FVII), Balb/c mice; details: for F7 enzyme activity (%) / F7 enzyme activity (Ratio using MC3 as 1): i.v. 0.025 mg siRNA/kg, plasma at 24 hours; for F7 enzyme activity (%): untreated mice as 100%; for F7 enzyme activity (Ratio using MC3 as 1): relative plasma F7 activity of MC3 LNP as 1
Summary of the method: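 Female Balb/c mice, 5 weeks old, received F7 siRNA lipid nanoparticles i.v. at 0.025 mg siRNA/kg; plasma F7 activity measured chromogenically (BIOPHEN FVII) 24 h later. Values are % of untreated mice, also expressed as a ratio to MC3-containing nanoparticles set at 1.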

[6] = Storage stability of FlucmRNA-loaded LNP at −80, 5, 25 and 40° C.; type: physicochemical; details: for period for which quality remained good, −80° C.: maximum storage period 1 week; for period for which quality remained good, 5° C. / period for which quality remained good, 25° C. / period for which quality remained good, 40° C. (weeks) / period for which quality remained good, 40° C. (days): maximum storage period 5 weeks; for quality at production (storage stability criteria): criteria: PDI 0.2 or less, encapsulation 80% or more
Summary of the method: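 FlucmRNA-loaded LNPs held at −80, 5, 25 or 40° C; at each time point size, PDI and encapsulation measured. Quality deemed maintained while size stays within ±20 nm of preparation day, PDI ≤0.2 and encapsulation ≥80%; value is the period meeting all three.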

[7] = F7siRNA-loaded LNP, 50:10:38.5:1.5, N/P ratio 6
[8] = FlucmRNA-loaded LNP, 50:10:38.5:1.5
[9] = FlucmRNA-loaded LNP, lipid:DSPC:cholesterol:DMG-PEG2K 50:10:38.5:1.5

Row | SMILES | PDI [1, 7] | ζ-Average (nm) [1, 7] | PDI [1, 8] | ζ-Average (nm) [1, 9] [nm] | % siRNA encapsulation [2] | % mRNA encapsulation [2] [%] | Fluc Activity in liver [3] | Fluc activity in the spleen, compared with CL4F6 [4] | Fluc Activity in spleen [4] | F7 enzyme activity (%) [5] [%] | period for which quality remained good, −80° C. [6] [week] | period for which quality remained good, 5° C. [6] | period for which quality remained good, 25° C. [6] | period for which quality remained good, 40° C. (weeks) [6] | knockdown activity, compared with MC3 ([5]; F7siRNA-loaded LNP, versus LNP comprising MC3) | F7 enzyme activity (Ratio using MC3 as 1) [5] | period for which quality remained good, 40° C. (days) [6] [day days] | quality at production (storage stability criteria) [6] | Fluc activity in the spleen, compared with CL15F6 [4]
1 | CCCCCCCCCCC(CCCC)C(=O)OCCCCCCC(O)(CCCCCCOC(=O)C(CCCC)CCCCCCCCCC)CCCCN(CCC)CCC (centres unmarked) [CL4F 12-4] | 0.011 | 94.55 nm | 0.015 | 84.57 | 100.1% | 99.0 | 7.70E+07 Avg Radiance [p/s/cm2/sr] | higher Fluc activity | 3.19E+06 Avg Radiance [p/s/cm2/sr] | 5 | 1 | 5 weeks | 5 weeks | 1 week weeks |  |  |  |  | 
2 | CCCCCCCCCCC(CCCCCC)C(=O)OCCCCCCC(O)(CCCCCCOC(=O)C(CCCCCC)CCCCCCCCCC)CCCCN(CCC)CCC (centres unmarked) [CL4F 12-6] | 0.012 and 0.008 | 92.28 nm and 94.26 nm | 0.017 | 82.84 | 99.3% and 99.6% | 99.7 | 5.86E+07 Avg Radiance [p/s/cm2/sr] |  | 1.72E+06 Avg Radiance [p/s/cm2/sr] | 6 | 1 | 5 weeks | 5 weeks | 5 weeks | higher knockdown activity | 0.18 |  |  | 
3 | CCCCCCCCCCC(CCCCCCCCCC)C(=O)OCCCCCCC(O)(CCCCCCOC(=O)C(CCCCCCCCCC)CCCCCCCCCC)CCCCN(CCC)CCC [CL4F 12-10] | 0.015 | 85.62 nm | 0.019 | 75.85 | 99.2% | 99.6 | 3.09E+07 Avg Radiance [p/s/cm2/sr] |  | 2.77E+05 Avg Radiance [p/s/cm2/sr] | 80.6 | 1 | 5 weeks | 5 weeks | 5 weeks |  |  |  |  | 
4 | CCCCCCCCCCCC(CCC)C(=O)OCCCCCCC(O)(CCCCCCOC(=O)C(CCC)CCCCCCCCCCC)CCCCN(CCC)CCC (centres unmarked) [CL4F 13-3] | 0.023 | 92.25 nm | 0.044 | 83.05 | 99.7% | 96.3 | 7.34E+07 Avg Radiance [p/s/cm2/sr] | higher Fluc activity | 7.30E+06 Avg Radiance [p/s/cm2/sr] | 8.4 | 0 | 0 week weeks | 0 week weeks |  |  |  | 0 |  | 
5 | CCCCCCCCCCCCC(CC)C(=O)OCCCCCCC(O)(CCCCCCOC(=O)C(CC)CCCCCCCCCCCC)CCCCN(CCC)CCC (centres unmarked) [CL4F 14-2] | 0.076 | 80.87 nm | 0.078 | 74.02 | 98.0% | 94.0 | 4.08E+07 Avg Radiance [p/s/cm2/sr] | higher Fluc activity | 3.66E+06 Avg Radiance [p/s/cm2/sr] | 7.9 | 0 | 0 week weeks | 0 week weeks |  |  |  | 0 |  | 
6 | CCCCCCCCCCCCCCC(C)C(=O)OCCCCCCC(O)(CCCCCCOC(=O)C(C)CCCCCCCCCCCCCC)CCCCN(CCC)CCC (centres unmarked) [CL4F 16-1] | 0.092 | 64.81 nm | 0.045 | 69.08 | 94.9% | 65.9 | 8.52E+06 Avg Radiance [p/s/cm2/sr] |  | 1.93E+06 Avg Radiance [p/s/cm2/sr] | 103.6 |  |  |  |  |  |  |  | Does not meet the criteria for “good” at production | 
7 | CCCCC(CCCC)C(=O)OCCCCCCC(O)(CCCCCCOC(=O)C(CCCC)CCCC)CCCCOC(=O)C1CCN(C)CC1 [CL15F 6-4] | 0.255 | 230.7 nm | 0.316 | 312.10 | 91.5% | 66.7 | 1.84E+06 Avg Radiance [p/s/cm2/sr] |  | 3.39E+07 Avg Radiance [p/s/cm2/sr] |  |  |  |  |  |  | 2.28 |  | Does not meet the criteria for “good” at production | higher Fluc activity
8 | CCCCCC(CCC)C(=O)OCCCCCCC(O)(CCCCCCOC(=O)C(CCC)CCCCC)CCCCOC(=O)C1CCN(C)CC1 (centres unmarked) [CL15F 7-3] | 0.398 | 287.9 nm | 0.369 | 370.30 | 95.7% | 64.2 | 5.34E+06 Avg Radiance [p/s/cm2/sr] |  | 1.48E+07 Avg Radiance [p/s/cm2/sr] |  |  |  |  |  |  | 2.08 |  | Does not meet the criteria for “good” at production | higher Fluc activity
9 | CCCCCC(CCCCC)C(=O)OCCCCCCC(O)(CCCCCCOC(=O)C(CCCCC)CCCCC)CCCCOC(=O)C1CCN(C)CC1 [CL15F 7-5] | 0.039 | 180.6 nm | 0.007 | 196.00 | 98.8% | 97.6 | 2.15E+06 Avg Radiance [p/s/cm2/sr] |  | 1.37E+07 Avg Radiance [p/s/cm2/sr] |  | 0 | 5 weeks | 5 weeks | 5 weeks |  | 1.74 |  |  | higher Fluc activity
